The text below walks through data of patent US20250179057A1, “MEK IMMUNE ONCOLOGY INHIBITORS AND THERAPEUTIC USES THEREOF” (Immuneering Corporation, priority 2022, published 2025).

Molecules are shown by their SMILES. Where a name gives a salt, the structure may show the parent alone. Read-outs that look alike come from different tables or passages of the source.

Series [1] deals with hERG (Homo sapiens, UniProt Q12809). The experiment in a line: in vitro. As to the method: Materials and Methods: CHO cells (transformed with adenovirus 5 DNA; Stably transfected with full length hERG cDNA) were cultured in Ham's F-12 supplemented with 10% fetal bovine serum, 100 U/mL penicillin G sodium, 100 μg/mL streptomycin sulfate and 400 μg/mL Zeocin. Before testing, cells in culture dishes were rinsed with Hank's Balanced Salt Solution, detached with accutase.
HEPES-buffered intracellular solution (Charles River proprietary) for whole cell recordings was loaded into the intracellular compartment of the SP384PE. Extracellular buffer (HB-PS) and Cell suspension (in HB-PS) were pipetted into the extracellular compartment of the SP384PE chip. After establishment of a whole-cell configuration, membrane currents were recorded using patch clamp amplifier in the SP384PE system.
Test article (TA) concentrations (eight (8) concentrations of each test article were evaluated) were applied to naïve cells (n=4, where n=replicates/concentration). Each application consisted of addition of 40 μL of 2× concentrated test article solution to the total 80 μL of final volume of the extracellular well of the SP384PE chip. Duration of exposure to each compound concentration was five (5) minutes.
hERG current was measured using stimulus voltage patterns with fixed amplitudes: activation pre-pulse (TP1) to +40 mV for 2 s and test pulse (TP2) to −40 mV for 2 s from a holding potential of −80 mV. hERG current was measured as the outward peak current at TP2 (tail current). The stimulation was repeated with 0.1 Hz frequency during 2 min as baseline and 5 min after TA application.
Data acquisition and analyses were performed using the SP384PE system operation software. The decrease in current amplitude after TA application was used to calculate the percent block relative to control.
Tonic Block effect was calculated as:
[formula] • where ITP2, baseline and ITP2, TA were the outward peak K^+ currents elicited by the TP2 before application and 5 min after application of a test article, respectively.
The data were corrected for run-down:
[formula] • where % VC and % PC were the mean values of the current block with the vehicle and positive controls, respectively.
Concentration-response data were fitted to an equation of the following form:
[formula] • where [Test] was the concentration of test article, IC50 was the concentration of the test article producing half-maximal block, N was the Hill coefficient, % VC was the mean current block at the vehicle control and % Block was the percentage of ion channel current inhibited at each concentration of a test article. Nonlinear least squares fits were solved with the XLfit add-in for Excel (Microsoft, Redmond, WA).
In this study, hERG Ion channel block of IC50 values were determined. […] In brief, CHO cells were cultured in Ham's F-12 supplemented with 10% fetal bovine serum, 100 U/mL penicillin G sodium, 100 μg/mL streptomycin sulfate and 400 μg/mL Zeocin. Before testing, cells in culture dishes were rinsed with Hank's Balanced Salt Solution, detached with accutase. […] Test article (TA) concentrations were applied to naïve cells (n=4, where n=replicates/concentration). Each application consisted of addition of 40 μL of 2× concentrated test article solution to the total 80 μL of final volume of the extracellular well of the SP384PE chip. Duration of exposure to each compound concentration was five (5) minutes. hERG current was measured using stimulus voltage patterns with fixed amplitudes: activation pre-pulse (TP1) to +40 mV for 2 s and test pulse (TP2) to −40 mV for 2 s from a holding potential of −80 mV. hERG current was measured as the outward peak current at TP2 (tail current). The stimulation was repeated with 0.1 Hz frequency during 2 min as baseline and 5 min after TA application. Data acquisition and analyses were performed using the SP384PE system operation software.

Series [2] can be described thus: Mouse pharmacokinetics (oral cassette dosing), plasma. Format: in vivo. The conditions noted are these: BALB/c immunocompetent mice, 5 mg/kg p.o. The method, then:
Female mice (BALC/c) received a single dose (3 mice/treatment) of vehicle (10% 1N HCl:90% [20% […]) and at 0.5, 1, 2, 4, 8, 12 and 24-hour post dose humanely euthanized.
Blood was obtained through cardiac puncture into K+EDTA tubes, mixed by inversion and centrifuged to obtain the plasma. Blood will be kept on ice or at approximately 4° C. prior. Centrifugation will take place within 30 minutes of blood collection affording plasma samples. Plasma samples will be frozen as soon as possible after centrifugation and stored at −80° C. until analysis. All samples will be analysed by means of LC-MS/MS. Method development for bioanalysis will be performed by pharmacokinetics Department of Crown Bioscience (Taicang) Inc. using LC-MS/MS analysis (using Waters HSS T3 2.1×50 mm (1.8 um) LC column, and an API-4000 Electrospray MS unit). The results of a kinetic solubility (free base) study are represented in Table 19.

The target in series [3] is T1, CYP1A2 (Homo sapiens, UniProt P05177).
T1 sequence (P05177 1-516): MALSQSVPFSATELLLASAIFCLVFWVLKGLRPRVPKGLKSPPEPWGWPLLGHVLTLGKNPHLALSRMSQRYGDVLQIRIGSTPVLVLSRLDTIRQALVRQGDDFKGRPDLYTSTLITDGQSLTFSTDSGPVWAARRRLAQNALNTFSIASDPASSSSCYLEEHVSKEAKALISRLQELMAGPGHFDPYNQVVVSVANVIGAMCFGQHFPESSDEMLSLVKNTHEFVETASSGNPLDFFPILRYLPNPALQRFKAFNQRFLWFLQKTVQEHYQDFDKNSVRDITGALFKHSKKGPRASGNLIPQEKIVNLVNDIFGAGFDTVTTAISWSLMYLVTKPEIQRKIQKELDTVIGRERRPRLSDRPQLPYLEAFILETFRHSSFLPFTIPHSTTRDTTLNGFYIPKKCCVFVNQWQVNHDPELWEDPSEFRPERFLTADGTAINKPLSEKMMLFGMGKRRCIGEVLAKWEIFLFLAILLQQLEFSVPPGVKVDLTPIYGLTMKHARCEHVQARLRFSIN
The experiment in a line: CYP450 panel inhibition in human liver microsomes, 1A2 (phenacetin). The conditions noted are these: for CYP-1A2 (Phenacetin) mean percentage CYP inhibition: human liver microsomes, 10 μM, substrate phenacetin; for inhibition at 30 min, 10 µM: human, microsomes, pH 7.4. For orientation: Liver microsomes are a subcellular fraction often used to study metabolism.

Where [4] appears, read: read-out: IC50 (μM), hERG ion channel block, Example 46, 5 min exposure per concentration.
The mark [5] stands for this setting: female, mouse, read-out: AUC0-t.

Sequence of hERG (Q12809 whole entry): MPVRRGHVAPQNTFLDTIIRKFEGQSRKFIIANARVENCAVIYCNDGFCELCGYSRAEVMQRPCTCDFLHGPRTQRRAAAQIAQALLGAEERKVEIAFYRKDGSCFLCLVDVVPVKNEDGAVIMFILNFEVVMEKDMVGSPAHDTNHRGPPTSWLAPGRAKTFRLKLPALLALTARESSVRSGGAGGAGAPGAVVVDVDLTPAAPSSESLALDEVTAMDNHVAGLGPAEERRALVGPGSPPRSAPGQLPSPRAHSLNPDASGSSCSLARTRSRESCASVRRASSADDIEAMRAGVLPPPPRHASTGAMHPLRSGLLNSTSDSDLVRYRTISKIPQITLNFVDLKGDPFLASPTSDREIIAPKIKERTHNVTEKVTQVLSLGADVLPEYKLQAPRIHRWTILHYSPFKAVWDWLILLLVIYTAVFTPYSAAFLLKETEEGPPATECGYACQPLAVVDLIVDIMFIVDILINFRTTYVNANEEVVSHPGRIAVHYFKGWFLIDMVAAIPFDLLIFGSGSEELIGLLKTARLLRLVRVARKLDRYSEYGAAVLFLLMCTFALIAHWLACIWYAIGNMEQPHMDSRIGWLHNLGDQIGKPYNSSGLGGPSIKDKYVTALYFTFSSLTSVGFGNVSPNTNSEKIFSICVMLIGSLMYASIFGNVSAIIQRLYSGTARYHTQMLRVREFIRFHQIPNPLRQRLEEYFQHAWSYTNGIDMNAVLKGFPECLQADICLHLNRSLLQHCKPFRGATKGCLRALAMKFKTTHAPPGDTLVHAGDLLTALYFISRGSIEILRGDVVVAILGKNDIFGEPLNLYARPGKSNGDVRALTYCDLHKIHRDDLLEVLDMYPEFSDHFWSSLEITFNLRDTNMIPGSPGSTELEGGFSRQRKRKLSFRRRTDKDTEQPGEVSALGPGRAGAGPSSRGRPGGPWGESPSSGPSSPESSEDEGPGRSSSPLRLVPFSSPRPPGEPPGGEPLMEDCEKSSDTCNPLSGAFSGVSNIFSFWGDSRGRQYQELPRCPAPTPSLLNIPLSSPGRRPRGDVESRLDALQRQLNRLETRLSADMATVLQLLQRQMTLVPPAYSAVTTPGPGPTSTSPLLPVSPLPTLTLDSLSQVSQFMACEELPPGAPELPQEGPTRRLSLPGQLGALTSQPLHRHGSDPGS

As for `CNS(=O)(=O)Nc1cccc(Cc2c(CN(C)C)c3ccc(OC(=O)N(C)C)cc3oc2=O)c1F` [Compound 9], in series [1] (setting [4]), the IC50 (usually the concentration at which inhibition is half-maximal) amounted to 22.4 µM. In series [2], the “AUC0-∞” value was 0.445 µg·h/mL; the “AUC(0-t)” value is 0.441 µg·h/mL; the peak concentration (Cmax) (as a rule, the maximum level reached in the sampled fluid or tissue) is 0.725 µg/mL; the “T1/2” value worked out at 66 min. Moreover, the time of peak concentration (Tmax) (usually the time at which the peak concentration occurs) in series [2] worked out at 4.98 min. In series [3], the “CYP-1A2 (Phenacetin) mean percentage CYP inhibition” value worked out at 2.8%.

Regarding `CNS(=O)(=O)Nc1cccc(Cc2c(CN(C)C)c3cc(F)c(OC(=O)N(C)C)cc3oc2=O)c1F` [Compound 25], in series [2], the “AUC0-∞” value was determined as 1.426 µg·h/mL, the “AUC(0-t)” value came to 1.336 µg·h/mL, the “Cmax” value was 1.037 µg/mL and the “T1/2” value came to 66 min. For the same compound, the “Tmax” value in series [2] was 4.98 min. The “CYP-1A2 (Phenacetin) mean percentage CYP inhibition” value in series [3] amounted to 7.9%.

Regarding `CCS(=O)(=O)Nc1cccc(Cc2c(CN(C)C)c3ccc(OC(=O)N(C)C)cc3oc2=O)c1F` [Compound 120], in series [2], the “AUC0-∞” value is 0.6732 µg·h/mL, the “AUC(0-t)” value was 0.6693 µg·h/mL, the “Cmax” value amounted to 1.4227 µg/mL and the “T1/2” value amounted to 18 min. For the same compound, the time to peak (Tmax) in series [2] was found to be 4.98 min. Also, the “CYP-1A2 (Phenacetin) mean percentage CYP inhibition” value in series [3] is −3.7%.

On to `CNS(=O)(=O)Nc1nccc(Cc2c(CN(C)C)c3ccc(OC(=O)N(C)C)cc3oc2=O)c1F` [Compound 124], for which, in series [1] (setting [4]), the IC50 was 4.2 µM. Also, the “CYP-1A2 (Phenacetin) mean percentage CYP inhibition” value in series [3] worked out at 9.9%.

As to `CNS(=O)(=O)Nc1cccc(Cc2c(CN3CCNCC3)c3cc(F)c(OC(=O)N(C)C)cc3oc2=O)c1F` [Compound 134], the “CYP-1A2 (Phenacetin) mean percentage CYP inhibition” value in series [3] is listed as −0.9%.

For `CCCS(=O)(=O)Nc1cccc(Cc2c(CN3CCNCC3)c3cc(Cl)c(OC(=O)N(C)C)cc3oc2=O)c1F` [Compound 167], the 50% inhibitory concentration (IC50) in series [1] (setting [4]) is 1.5 µM. In series [3], the “CYP-1A2 (Phenacetin) mean percentage CYP inhibition” value is given as 10.8%.

On to `CCN(C)Cc1c(Cc2cccc(NS(=O)(=O)NC)c2F)c(=O)oc2cc(OC(=O)N(C)C)c(F)cc12` [Compound 238], for which, in series [1], the IC50 turned out to be 19.4 µM. For the same compound, in series [2] (female, mouse), the total exposure AUC(0-inf) (as a rule, total exposure, with the tail of the curve extrapolated) came out at 0.434 µg·h/mL and the half-life (commonly the time in which the quantity being followed falls by half) was 60 min. Besides, the AUC(0-t) in series [2] (setting [5]) came out at 0.416 µg·h/mL. Moreover, the highest concentration (Cmax) in series [2] (female, mouse, read-out: Cmax) came out at 0.857 µg/mL. In addition, the time to peak (Tmax) in series [2] (female, mouse, read-out: Tmax) was determined as 4.98 min.

In series [1], `CCN(C)Cc1c(Cc2cccc(NS(=O)(=O)NC)c2Cl)c(=O)oc2cc(OC(=O)N(C)C)ccc12` [Compound 245, 3-(2-chloro-3-((N-methylsulfamoyl)amino)benzyl)-4-((ethyl(methyl)amino)methyl)-2-oxo-2H-chromen-7-yl dimethylcarbamate] registered an IC50 of 16.1 µM. Besides, the AUC(0-t) in series [2] (setting [5]) is 0.154 µg·h/mL. Also, the Cmax in series [2] (female, mouse, read-out: Cmax) was found to be 0.384 µg/mL. For the same compound, the time of peak concentration (Tmax) in series [2] (female, mouse, read-out: Tmax) came to 4.98 min. Besides, the inhibition (usually the change of the read-out against control, counted positive when it falls) at 30 min, 10 µM in series [3] was -0.3%.

For `CNS(=O)(=O)Nc1cccc(Cc2c(CN3CCNCC3)c3ccc(OC(=O)N(C)C)cc3oc2=O)c1Cl` [Compound 246, 3-(2-chloro-3-((N-methylsulfamoyl)amino)benzyl)-2-oxo-4-(piperazin-1-ylmethyl)-2H-chromen-7-yl dimethylcarbamate hydrochloride], in series [1], the IC50 was over 30 µM. Moreover, the inhibition at 30 min, 10 µM in series [3] is -3.7%.

As to `CNS(=O)(=O)Nc1cccc(Cc2c(CN3CCNCC3)c3cc(Cl)c(OC(=O)N(C)C)cc3oc2=O)c1Cl` [Compound 256, 6-chloro-3-(2-chloro-3-((N-methylsulfamoyl)amino)benzyl)-2-oxo-4-(piperazin-1-ylmethyl)-2H-chromen-7-yl dimethylcarbamate hydrochloride], the IC50 in series [1] worked out at 21.6 µM. In addition, in series [2] (female, mouse), the AUC(0-inf) is 0.0283 µg·h/mL. Moreover, in series [2] (setting [5]), the AUC(0-t) is 0.0195 µg·h/mL. In addition, the highest concentration (Cmax) in series [2] (female, mouse, read-out: Cmax) worked out at 0.0083 µg/mL. The Tmax in series [2] (female, mouse, read-out: Tmax) came to 30 min. Moreover, the inhibition at 30 min, 10 µM in series [3] was 6.2%.

`CCS(=O)(=O)Nc1cccc(Cc2c(CN3CCNCC3)c3cc(Cl)c(OC(=O)N(C)C)cc3oc2=O)c1Cl` [Compound 257, 6-chloro-3-(2-chloro-3-(ethylsulfonamido)benzyl)-2-oxo-4-(piperazin-1-ylmethyl)-2H-chromen-7-yl dimethylcarbamate hydrochloride]: it took 8.4 µM to reach half-maximal inhibition in series [1] (IC50). For the same compound, in series [2] (setting [5]), the AUC(0-t) was 0.103 µg·h/mL. The Cmax in series [2] (female, mouse, read-out: Cmax) amounted to 0.0203 µg/mL. Further, the Tmax in series [2] (female, mouse, read-out: Tmax) was 240 min. Besides, in series [3], the inhibition at 30 min, 10 µM is 9.9%.

With `CNS(=O)(=O)Nc1cccc(Cc2c(CN(C)C)c3ccc(OC(=O)N(C)C)cc3oc2=O)c1Cl` [Compound 274, 3-(2-chloro-3-((N-methylsulfamoyl)amino)benzyl)-4-((dimethylamino)methyl)-2-oxo-2H-chromen-7-yl dimethylcarbamate], the IC50 in series [1] is over 30 µM. In series [2] (female, mouse), this compound gave an AUC(0-inf) of 0.396 µg·h/mL and a half-life of 18 min. The AUC(0-t) in series [2] (setting [5]) was 0.392 µg·h/mL. For the same compound, in series [2] (female, mouse, read-out: Cmax), the Cmax worked out at 0.796 µg/mL. Further, the time of peak concentration (Tmax) in series [2] (female, mouse, read-out: Tmax) worked out at 4.98 min. For the same compound, the inhibition at 30 min, 10 µM in series [3] is -3.4%.

As to `Cn1cnc2c(F)c(Nc3ccc(Br)cc3Cl)c(C(=O)NOCCO)cc21` [Reference-1, Selumetinib], in series [1] (human), the half-maximal inhibitory concentration (IC50) at 5 min is over 30 µM.
